Assay results taken from ChEMBL document CHEMBL5390211, “Discovery of N-Arylsulfonyl-Indole-2-Carboxamide Derivatives as Galectin-3 and Galectin-8 C-Terminal Domain Inhibitors” (ACS Med Chem Lett, 2023).

Key:
[1] = biological target: Galectin-1 (Homo sapiens, UniProt P09382); experiment: Binding affinity to human Gal-1 expressed in Escherichia coli BL21 (DE3) by competitive fluorescence polarization assay
[2] = biological target: T1, Galectin-3 (Homo sapiens, UniProt P17931); experiment: Binding affinity to human Gal-3 expressed in Escherichia coli BL21 (DE3) cells by competitive fluorescence polarization assay
T1 sequence (P17931 whole entry, the tested form may be a part): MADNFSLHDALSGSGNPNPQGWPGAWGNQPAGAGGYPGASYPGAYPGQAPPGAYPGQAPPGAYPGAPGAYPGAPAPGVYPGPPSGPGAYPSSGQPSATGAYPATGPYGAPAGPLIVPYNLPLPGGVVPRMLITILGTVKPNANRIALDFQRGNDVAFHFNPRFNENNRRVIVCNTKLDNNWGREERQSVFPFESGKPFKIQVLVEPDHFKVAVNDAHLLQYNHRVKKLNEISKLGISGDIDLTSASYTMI

[3] = biological target: T2, Galectin-8 (Homo sapiens, UniProt O00214); experiment: Binding affinity to C-terminal domain human Gal-8 expressed in Escherichia coli BL21 (DE3) cells by competitive fluorescence polarization assay
T2 sequence (O00214 whole entry): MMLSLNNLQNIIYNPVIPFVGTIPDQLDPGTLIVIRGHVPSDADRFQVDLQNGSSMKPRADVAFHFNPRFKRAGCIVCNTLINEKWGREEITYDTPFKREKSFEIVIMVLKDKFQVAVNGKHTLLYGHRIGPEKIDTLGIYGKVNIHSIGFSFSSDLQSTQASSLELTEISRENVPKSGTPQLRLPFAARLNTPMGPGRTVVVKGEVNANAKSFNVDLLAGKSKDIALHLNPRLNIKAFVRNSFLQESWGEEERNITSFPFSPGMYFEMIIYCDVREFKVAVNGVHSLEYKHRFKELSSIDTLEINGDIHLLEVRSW

[4] = biological target: T2, Galectin-8; experiment: Binding affinity to N-terminal domain human Gal-8 expressed in Escherichia coli BL21 (DE3) cells by isothermal titration calorimetry analysis
[5] = biological target: T2, Galectin-8; experiment: Binding affinity to C-terminal domain human Gal-8 expressed in Escherichia coli BL21 (DE3) cells by isothermal titration calorimetry analysis
[6] = biological target: T1, Galectin-3
Description: Binding affinity to human Gal-3 expressed in Escherichia coli BL21 (DE3) cells assessed as change in enthalpy by isothermal titration calorimetry analysis

[7] = biological target: T1, Galectin-3; remark: listed apart in the source
Description: Binding affinity to human Gal-3 expressed in Escherichia coli BL21 (DE3) cells assessed as change in entropy by isothermal titration calorimetry analysis

[8] = biological target: T3, Galectin-8 (Homo sapiens) (UniProt O00214)
T3 sequence (whole entry): T2 sequence (O00214 whole entry)
Description: Binding affinity to C-terminal domain human Gal-8 expressed in Escherichia coli BL21 (DE3) cells assessed as change in gibbs free energy by isothermal titration calorimetry analysis

[9] = Cytotoxicity against human MRC5 cells assessed as cell viability at 1 uM incubated for 24 hrs by MTT assay relative to control; format: toxicity, cell-based; details: read-out: Activity
[10] = biological target: T1, Galectin-3; remark: listed apart in the source
Description: Binding affinity to human Gal-3 expressed in Escherichia coli BL21 (DE3) cells assessed as change in gibbs free energy by isothermal titration calorimetry analysis

[11] = biological target: T3, Galectin-8 (Homo sapiens); remark: listed apart in the source
Description: Binding affinity to C-terminal domain human Gal-8 expressed in Escherichia coli BL21 (DE3) cells assessed as change in enthalpy by isothermal titration calorimetry analysis

[12] = biological target: T3, Galectin-8 (Homo sapiens); remark: listed apart in the source
Description: Binding affinity to C-terminal domain human Gal-8 expressed in Escherichia coli BL21 (DE3) cells assessed as change in entropy by isothermal titration calorimetry analysis

[13] = biological target: T1, Galectin-3; experiment: Binding affinity to human Gal-3 expressed in Escherichia coli BL21 (DE3) cells by isothermal titration calorimetry analysis
[14] = biological target: T2, Galectin-8; experiment: Binding affinity to N-terminal domain human Gal-8 expressed in Escherichia coli BL21 (DE3) cells by competitive fluorescence polarization assay
[15] = test system: MRC5; experiment: Inhibition of cell migration in human MRC5 cells assessed as reduction in would closure at 1 uM incubated for 48 hrs by Giemsa staining based microscopic analysis relative to control; format: toxicity
[16] = Cytotoxicity against human MRC5 cells assessed as cell viability at 10 uM incubated for 24 hrs by MTT assay relative to control; format: toxicity, cell-based; details: read-out: Activity
[17] = biological target: T2, Galectin-8; experiment: Binding affinity to N-terminal domain human Gal-8 expressed in Escherichia coli BL21star (DE3) cells by competitive fluorescence polarization assay

Sequence of Galectin-1 (P09382 whole entry): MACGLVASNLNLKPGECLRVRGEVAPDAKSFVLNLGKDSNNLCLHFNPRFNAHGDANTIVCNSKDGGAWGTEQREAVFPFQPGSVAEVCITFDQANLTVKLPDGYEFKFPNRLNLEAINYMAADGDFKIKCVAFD

Kd [2]	Kd [3]	Compound	other results
35.9 µM	5.6 µM	O=C(NS(=O)(=O)c1sc(Cl)cc1Cc1ccccc1)c1cc2cc(Oc3ccc(Cl)c(Cl)c3)ccc2[nH]1	Kd [1]: 96.1 µM
–	–	LACTOSE, ANHYDROUS	Kd [4]: 893 µM; Kd [5]: 93 µM
76.9 µM	57 µM	O=C(NS(=O)(=O)c1ccn(Cl)n1)c1cc2cc(Oc3ccc(Cl)c(Cl)c3)ccc2[nH]1	–
21.9 µM	17.3 µM	O=C(NS(=O)(=O)c1cc(Cl)sc1Cl)c1cc2cc(Oc3ccc(Cl)c(Cl)c3)ccc2[nH]1	–
20.1 µM	15.5 µM	O=C(NS(=O)(=O)c1ccc2c(c1)OCC2)c1cc2cc(Oc3ccc(Cl)c(Cl)c3)ccc2[nH]1	–
16 µM	9.4 µM	O=C(NS(=O)(=O)c1ccc(Cl)cc1Cl)c1cc2cc(Oc3ccc(Cl)c(Cl)c3)ccc2[nH]1	Kd [1]: 43.7 µM; Kd [14]: > 300 µM
10 µM	18.7 µM	O=C(NS(=O)(=O)c1ccc2oc(=O)ccc2c1)c1cc2cc(Oc3ccc(Cl)c(Cl)c3)ccc2[nH]1	Kd [1]: 86.9 µM; deltaH [6]: -3.82 kcal/mol; -TdeltaS [7]: -2.94 kcal/mol; deltaG [8]: -7.77 kcal/mol; deltaG [10]: -6.77 kcal/mol; deltaH [11]: -1.01 kcal/mol; -TdeltaS [12]: -6.76 kcal/mol; Kd [13]: 11 µM; Kd [14]: > 300 µM; Kd [5]: 2.01 µM
30 µM	19.2 µM	O=C(NS(=O)(=O)c1ccc([N+](=O)[O-])cc1)c1cc2cc(Oc3ccc(Cl)c(Cl)c3)ccc2[nH]1	–
24.9 µM	14.1 µM	O=C(NS(=O)(=O)c1cc(Cl)c(Cl)s1)c1cc2cc(Oc3ccc(Cl)cc3Br)ccc2[nH]1	–
22.7 µM	19.3 µM	O=C(NS(=O)(=O)c1cc(Cl)c(Cl)s1)c1cc2cc(Oc3ccc(Cl)cc3Cl)ccc2[nH]1	–
20 µM	10.9 µM	O=C(NS(=O)(=O)c1cc(Cl)c(Cl)s1)c1cc2cc(Oc3ccc(Cl)c(Cl)c3)ccc2[nH]1	Kd [1]: 70.8 µM; Kd [14]: > 300 µM
24.9 µM	16.4 µM	O=C(NS(=O)(=O)c1ccccc1Cl)c1cc2cc(Oc3ccc(Cl)c(Cl)c3)ccc2[nH]1	–
36.5 µM	16.1 µM	CCOC(=O)c1ccc(S(=O)(=O)NC(=O)c2cc3cc(Oc4ccc(Cl)c(Cl)c4)ccc3n2C)cc1	Kd [1]: > 500 µM; Kd [14]: > 300 µM
15.5 µM	18.5 µM	O=C(NS(=O)(=O)c1ccc(OC(F)(F)F)cc1)c1cc2cc(Oc3ccc(Cl)c(Cl)c3)ccc2[nH]1	–
23.7 µM	9.4 µM	O=C(NS(=O)(=O)c1cc(Cl)c(Cl)s1)c1cc2cc(Oc3ccc(Br)c(Cl)c3)ccc2[nH]1	–
31 µM	20.3 µM	Cc1nc(Cl)sc1S(=O)(=O)NC(=O)c1cc2cc(Oc3ccc(Cl)c(Cl)c3)ccc2[nH]1	–
10.6 µM	8.2 µM	O=C(NS(=O)(=O)c1csc2ccccc12)c1cc2cc(Oc3ccc(Cl)c(Cl)c3)ccc2[nH]1	–
80.9 µM	18.1 µM	O=C(NS(=O)(=O)c1ccc(Cl)cc1)c1cc2cc(Oc3ccc(Cl)c(Cl)c3)ccc2[nH]1	–
224 µM	253 µM	O=C(NS(=O)(=O)c1ccc(Cl)cc1Cl)c1cc2c(Oc3ccc(F)cc3)cccc2[nH]1	–

Kd [2]	Kd [3]	Compound	other results
303 µM	76.2 µM	O=C(NS(=O)(=O)c1ccc(Cl)cc1Cl)c1cc2ccc(Oc3ccc(F)cc3)cc2[nH]1	–
121 µM	57 µM	O=C(NS(=O)(=O)c1ccc(Cl)cc1Cl)c1cc2cc(Oc3ccc(F)cc3)ccc2[nH]1	–
33 µM	14.9 µM	O=C(NS(=O)(=O)c1cc(F)c(F)c(F)c1)c1cc2cc(Oc3ccc(Cl)c(Cl)c3)ccc2[nH]1	–
37.4 µM	18.7 µM	O=C(NS(=O)(=O)c1ccccc1)c1cc2cc(Oc3ccc(Cl)c(Cl)c3)ccc2[nH]1	–
212 µM	> 300 µM	O=C(NS(=O)(=O)c1cc(Cl)c(Cl)s1)c1cc2cc(Oc3ccc(Cl)cn3)ccc2[nH]1	–
363 µM	–	CCOC(=O)c1ccc(S(=O)(=O)N(C)C(=O)c2cc3cc(Oc4ccc(Cl)c(Cl)c4)ccc3n2C)cc1	–
27.1 µM	7.3 µM	O=C(NS(=O)(=O)c1cc(Cl)c(Cl)s1)c1cc2cc(Oc3ccc(Br)cc3F)ccc2[nH]1	–
32.3 µM	16 µM	O=C(NS(=O)(=O)c1ccc(F)cc1S(=O)(=O)C(F)(F)F)c1cc2cc(Oc3ccc(Cl)c(Cl)c3)ccc2[nH]1	–
119 µM	73 µM	O=C(O)c1ccc(S(=O)(=O)NC(=O)c2cc3cc(Oc4ccc(Cl)c(Cl)c4)ccc3[nH]2)cc1	–
321 µM	24.6 µM	O=C(NS(=O)(=O)Cc1noc2ccccc12)c1cc2cc(Oc3ccc(Cl)c(Cl)c3)ccc2[nH]1	–
30.5 µM	9.6 µM	O=C(NS(=O)(=O)c1cc(Cl)c(Cl)s1)c1cc2cc(Oc3ccc(Cl)c(Cl)c3)ccc2o1	Kd [1]: > 500 µM
14.3 µM	8 µM	O=C(NS(=O)(=O)c1cc(Cl)c(Cl)s1)c1cc2cc(Oc3ccc(Br)c(F)c3)ccc2[nH]1	–
27.3 µM	19.2 µM	O=C(NS(=O)(=O)c1cc(Cl)c(Cl)s1)c1cc2cc(Oc3cccc(Cl)c3Br)ccc2[nH]1	–
784 µM	–	CC(C)c1ccc(Oc2ccc3cc(C(=O)NS(=O)(=O)c4ccc(Cl)cc4Cl)[nH]c3c2)cc1	–
17.1 µM	17.5 µM	CCOC(=O)c1ccc(S(=O)(=O)NC(=O)c2cc3cc(Oc4ccc(Cl)c(Cl)c4)ccc3[nH]2)cc1	Kd [1]: 118 µM; Kd [14]: 228 µM
74.2 µM	22.9 µM	Cc1noc(C)c1S(=O)(=O)NC(=O)c1cc2cc(Oc3ccc(Cl)c(Cl)c3)ccc2[nH]1	–
39.2 µM	17.7 µM	COc1cccc(S(=O)(=O)NC(=O)c2cc3cc(Oc4ccc(Cl)c(Cl)c4)ccc3[nH]2)c1	–
210 µM	41.8 µM	O=C(NS(=O)(=O)c1ccccn1)c1cc2cc(Oc3ccc(Cl)c(Cl)c3)ccc2[nH]1	–

Compound	Kd [2]	Kd [3]	other results
O=C(NS(=O)(=O)c1ccc2ncsc2c1)c1cc2cc(Oc3ccc(Cl)c(Cl)c3)ccc2[nH]1	7.6 µM	8.3 µM	Kd [1]: 107 µM; deltaH [6]: 1.28 kcal/mol; -TdeltaS [7]: -8.63 kcal/mol; deltaG [8]: -7.12 kcal/mol; viability at 24 h, 1 µM [9]: 95%; deltaG [10]: -7.35 kcal/mol; deltaH [11]: 4.91 kcal/mol; -TdeltaS [12]: -12 kcal/mol; Kd [13]: 4.12 µM; Kd [14]: 210 µM; Kd [5]: 6.04 µM; inhibition at 1 µM [15]: 14%; viability at 24 h, 10 µM [16]: 66%
OC[C@H]1O[C@@H](S[C@@H]2O[C@H](CO)[C@H](O)[C@H](n3cc(-c4cccc(F)c4)nn3)[C@H]2O)[C@H](O)[C@@H](n2cc(-c3cccc(F)c3)nn2)[C@H]1O [OLITIGALTIN]	–	21.6 µM	Kd [17]: 86 µM; Kd [14]: 281 µM; inhibition at 1 µM [15]: 49%
O=C(NS(=O)(=O)c1sccc1Cc1ccccc1)c1cc2cc(Oc3ccc(Cl)c(Cl)c3)ccc2[nH]1	22.7 µM	12.5 µM	Kd [1]: 138 µM; deltaH [6]: -4.74 kcal/mol; -TdeltaS [7]: -1.94 kcal/mol; deltaG [8]: -7.76 kcal/mol; viability at 24 h, 1 µM [9]: 97%; deltaG [10]: -6.68 kcal/mol; deltaH [11]: -2.29 kcal/mol; -TdeltaS [12]: -5.47 kcal/mol; Kd [13]: 12.8 µM; Kd [14]: 203 µM; Kd [5]: 2.06 µM; inhibition at 1 µM [15]: 21%; viability at 24 h, 10 µM [16]: 99%
